Test results published in patent US9635859B2, “Pesticidal compositions and processes related thereto” (Dow AgroSciences LLC, priority 2012, dated 2017).

System: Beet Armyworm (Spodoptera exigua)
Assay: Bioassays on BAW, 128-well diet tray assay
Assay type: in vivo
Conditions: percent mortality, second instar larvae, 50 μg/cm^2 on artificial diet, five to seven days, 25° C.; Table 3
Protocol: Certain molecules disclosed in this document were tested against BAW and CEW and CL using procedures described in the following examples. In the reporting of the results, the “BAW & CEW & CL Rating Table” was used (See Table Section).
Bioassays on BAW (Spodoptera exigua)
Bioassays on BAW were conducted using a 128-well diet tray assay. one to five second instar BAW larvae were placed in each well (3 mL) of the diet tray that had been previously filled with 1 mL of artificial diet to which 50 μg/cm^2 of the test compound (dissolved in 50 μL of 90:10 acetone-water mixture) had been applied (to each of eight wells) and then allowed to dry. Trays were covered with a clear self-adhesive cover, and held at 25° C., 14:10 light-dark for five to seven days. Percent mortality was recorded for the larvae in each well; activity in the eight wells was then averaged. The results are indicated in the table entitled “Table 3: Assay Results” (See Table Section).

Compound	BAW Rating
N#Cc1cc(/C=C/C(c2cc(Cl)c(Cl)c(Cl)c2)C(F)(F)F)ccc1-n1cnc(NC(=O)C2CC2)n1 (stereo not drawn) [DC43, (E)-N-(1-(2-Cyano-4-(4,4,4-trifluoro-3-(3,4,5-trichlorophenyl)but-1-en-1-yl)phenyl)-1H-1,2,4-triazol-3-yl)cyclopropanecarboxamide]	A (50-100)
O=C(NCc1ccc(/C=C/C(c2cc(Cl)c(Cl)c(Cl)c2)C(F)(F)F)cc1C(F)(F)F)c1cccnc1 (stereo not drawn) [CC23]	A (50-100)
O=C(NCc1ncc(/C=C/C(c2cc(Cl)c(Cl)c(Cl)c2)C(F)(F)F)cc1Cl)C1CC1 (stereo not drawn) [CC45]	A (50-100)
O=C(CNC(=O)c1ccc(/C=C/C(c2cc(Cl)c(F)c(Cl)c2)C(F)(F)F)cc1Br)NCC(F)(F)F (stereo not drawn) [AC79, (E)-2-Bromo-4-(3-(3,5-dichloro-4-fluorophenyl)-4,4,4-trifluorobut-1-en-1-yl)-N-(2-oxo-2-((2,2,2-trifluoroethyl)amino)ethyl)benzamide]	A (50-100)
N#Cc1cc(/C=C/C(c2cc(Cl)cc(Cl)c2)C(F)(F)F)ccc1-n1cnc(N)n1 (stereo not drawn) [DC38]	A (50-100)
COc1c(Cl)cc(C(/C=C/c2ccc(-n3cncn3)cc2)C(F)(F)F)cc1Cl (stereo not drawn) [DC20]	A (50-100)
O=C(CC(F)(F)F)NCC(=O)n1ccc2cc(/C=C/C(c3cc(Cl)c(F)c(Cl)c3)C(F)(F)F)ccc21 (stereo not drawn) [BC13, (E)-N-(2-(5-(3-(3,5-Dichloro-4-fluorophenyl)-4,4,4-trifluorobut-1-en-1-yl)-1H-indol-1-yl)-2-oxoethyl)-3,3,3-trifluoropropanamide]	A (50-100)
O=C(CNC(=O)c1ccc(/C=C/C(c2cc(Cl)c(Cl)c(Cl)c2)C(F)(F)F)cc1Cl)NCC(F)(F)F (stereo not drawn) [AC64, (E)-2-Chloro-N-(2-oxo-2-((2,2,2-trifluoroethyl)amino)ethyl)-4-(4,4,4-trifluoro-3-(3,4,5-trichlorophenyl)but-1-en-1-yl)benzamide]	A (50-100)
O=C(NC1CSC1)c1ccc(/C=C/C(c2cc(Cl)c(Cl)c(Cl)c2)C(F)(F)F)cc1Br (stereo not drawn) [AC32]	A (50-100)
O=C(NCc1ccc(Cl)nc1)c1ccc(/C=C/C(c2cc(Cl)c(Cl)c(Cl)c2)C(F)(F)F)cc1C(F)(F)F (stereo not drawn) [AC36]	A (50-100)
O=C(NCc1ccc(Cl)nc1)c1ccc(/C=C/C(c2cc(Cl)cc(Cl)c2)C(F)(F)F)cc1F (stereo not drawn) [AC49]	A (50-100)
CS(=O)(=O)CCC(=O)NCc1ccc(/C=C/C(c2cc(Cl)c(Cl)c(Cl)c2)C(F)(F)F)cc1Cl (stereo not drawn) [CC30, (E)-N-(2-Chloro-4-(4,4,4-trifluoro-3-(3,4,5-trichlorophenyl)but-1-en-1-yl)benzyl)-3-(methylsulfonyl)propanamide]	A (50-100)
O=C(NCc1ccc(/C=C/C(c2cc(Cl)c(Cl)c(Cl)c2)C(F)(F)F)cc1Cl)C1CC1 (stereo not drawn) [CC11]	A (50-100)
CCNC(=O)NCc1ccc(/C=C/C(c2cc(Cl)c(Cl)c(Cl)c2)C(F)(F)F)cc1Br (stereo not drawn) [CC33]	A (50-100)
O=C(CC(F)(F)F)NCc1ccc(/C=C/C(c2cc(Cl)cc(Cl)c2)C(F)(F)F)cc1Cl (stereo not drawn) [CC9]	A (50-100)
CCc1cc(/C=C/C(c2cc(Cl)c(F)c(Cl)c2)C(F)(F)F)ccc1C(=O)NCC(=O)NCC(F)(F)F (stereo not drawn) [AC80]	A (50-100)
Cc1cc(/C=C/C(c2cc(Cl)c(Cl)c(Cl)c2)C(F)(F)F)ccc1C(=O)NCc1ccc(Cl)nc1 (stereo not drawn) [AC22]	A (50-100)
O=C(C1CC1)N(Cc1ccccn1)Cc1ccc(/C=C/C(c2cc(Cl)c(Cl)c(Cl)c2)C(F)(F)F)cc1C(F)(F)F (stereo not drawn) [CC29, (E)-N-(Pyridin-2-ylmethyl)-N-(4-(4,4,4-trifluoro-3-(3,4,5-trichlorophenyl)but-1-enyl)-2-(trifluoromethyl)benzyl)cyclopropanecarboxamide]	A (50-100)

Compound	BAW Rating
CCOC(=O)c1cc(/C=C/C(c2cc(Cl)cc(Cl)c2)C(F)(F)F)ccc1-n1cncn1 (stereo not drawn) [DC60]	A (50-100)
O=C(Cn1ncc2cc(/C=C/C(c3cc(Cl)c(F)c(Cl)c3)C(F)(F)F)ccc2c1=O)NCC(F)(F)F (stereo not drawn) [BC14, (E)-2-(6-(3-(3,5-Dichloro-4-fluorophenyl)-4,4,4-trifluorobut-1-en-1-yl)-1-oxophthalazin-2(1H)-yl)-N-(2,2,2-trifluoroethyl)acetamide]	A (50-100)
Cc1cc(/C=C/C(c2cc(Cl)c(Cl)c(Cl)c2)C(F)(F)F)cc(C#N)c1-n1cncn1 (stereo not drawn) [DC45]	A (50-100)
Cc1cc(/C=C/C(c2cc(Cl)cc(Cl)c2)C(F)(F)F)ccc1C(=O)NCc1nc2ccccc2s1 (stereo not drawn) [AC42]	A (50-100)
CCNC(=S)NCc1ccc(/C=C/C(c2cc(Cl)c(Cl)c(Cl)c2)C(F)(F)F)cc1Cl (stereo not drawn) [CC37, (E)-1-(2-Chloro-4-(4,4,4-trifluoro-3-(3,4,5-trichlorophenyl)but-1-en-1-yl)benzyl)-3-ethylthiourea]	A (50-100)
O=C(CC(F)(F)F)NCc1ccc(/C=C\C(c2cc(Cl)c(Cl)c(Cl)c2)C(F)(F)F)cc1 (stereo not drawn) [CC54, (Z)-3,3,3-Trifluoro-N-(4-(4,4,4-trifluoro-3-(3,4,5-trichlorophenyl)but-1-en-1-yl)benzyl)propanamide]	A (50-100)
O=C(NCc1ccc(/C=C/C(c2cc(Cl)c(Cl)c(Cl)c2)C(F)(F)F)cc1F)C1CC1 (stereo not drawn) [CC28]	A (50-100)
O=C(NC1CSC1)c1ccc(/C=C/C(c2cc(Cl)c(Cl)c(Cl)c2)C(F)(F)F)cc1C(F)(F)F (stereo not drawn) [AC34]	A (50-100)
FC(F)(F)C(/C=C/c1ccc(-n2cncn2)cc1)c1ccc(Cl)c(Cl)c1 (stereo not drawn) [DC12]	A (50-100)
CSCCC(=O)NCc1ccc(/C=C/C(c2cc(Cl)c(Cl)c(Cl)c2)C(F)(F)F)cc1Cl (stereo not drawn) [CC19]	A (50-100)
FC(F)(F)CNC(=S)CNC(=S)c1ccc(/C=C/C(c2cc(Cl)c(Cl)c(Cl)c2)C(F)(F)F)cc1Br (stereo not drawn) [AC90, (E)-2-Bromo-N-(2-thioxo-2-((2,2,2-trifluoroethyl)amino)ethyl)-4-(4,4,4-trifluoro-3-(3,4,5-trichlorophenyl)but-1-en-1-yl)benzothioamide]	A (50-100)
FC(F)(F)C(/C=C/c1ccc(-n2cncn2)cc1)c1cc(Cl)cc(Cl)c1 (stereo not drawn) [DC1, (E)-1-(4-(3-(3,5-Dichlorophenyl)-4,4,4-trifluorobut-1-en-1-yl)phenyl)-1H-1,2,4-triazole]	A (50-100)
CCC(=O)NCc1ccc(/C=C/C(c2cc(Cl)cc(Cl)c2)C(F)(F)F)cc1 (stereo not drawn) [CC4]	A (50-100)
O=C(CNC(=S)c1ccc(/C=C/C(c2cc(Cl)c(Cl)c(Cl)c2)C(F)(F)F)cc1Br)NCC(F)(F)F (stereo not drawn) [AC91, (E)-2-(2-Bromo-4-(4,4,4-trifluoro-3-(3,4,5-trichlorophenyl)but-1-en-1-yl)phenylthioamido)-N-(2,2,2-trifluoroethyl)acetamide]	A (50-100)
COc1cc(/C=C/C(c2cc(Cl)c(F)c(Cl)c2)C(F)(F)F)ccc1C(=O)NC1CS(=O)(=O)C1 (stereo not drawn) [AC85]	A (50-100)
O=C(NC1CS(=O)(=O)C1)c1ccc(/C=C/C(c2cc(Cl)c(Cl)c(Cl)c2)C(F)(F)F)cc1Br (stereo not drawn) [AC33]	A (50-100)
Cc1cc(/C=C/C(c2cc(Cl)cc(Cl)c2)C(F)(F)F)ccc1C(=O)NCc1cncnc1 (stereo not drawn) [AC39, 4-((E)-3-(3,5-Dichlorophenyl)-4,4,4-trifluorobut-1-enyl)-2-methyl-N-((pyrimidin-5-yl)methyl)benzamide]	A (50-100)
Cc1cc(/C=C/C(c2cc(Cl)cc(Cl)c2)C(F)(F)F)ccc1C(=O)NCC1CCCO1 (stereo not drawn) [AC118]	A (50-100)
